Laboratory results reported in PubChem BioAssay (NCI).
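1) Cells in 96-well plates. 2) Compound, 48 h, 5 concentrations. 3) Linear interpolation between surrounding doses. 4) Unreached endpoint = highest concentration. At the TGI there is no net growth.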

Key:
Assay in all cases: DTP human tumour cell line panel, 48 h
786-0 renal = test system: 786-0 renal
A498 renal = test system: A498 renal
A549 NSCLC = test system: A549 NSCLC
ACHN renal = test system: ACHN renal
CAKI-1 renal = test system: CAKI-1 renal
CCRF-CEM leukemia = test system: CCRF-CEM leukemia
COLO 205 colon = test system: COLO 205 colon
DMS 114 small cell lung = test system: DMS 114 small cell lung
DMS 273 small cell lung = test system: DMS 273 small cell lung
EKVX NSCLC = test system: EKVX NSCLC
HCC-2998 colon = test system: HCC-2998 colon
HCT-116 colon = test system: HCT-116 colon
HCT-15 colon = test system: HCT-15 colon
HL-60(TB) leukemia = test system: HL-60(TB) leukemia
HOP-18 NSCLC = test system: HOP-18 NSCLC
HOP-62 NSCLC = test system: HOP-62 NSCLC
HT29 colon = test system: HT29 colon
IGROV1 ovarian = test system: IGROV1 ovarian
K-562 leukemia = test system: K-562 leukemia
KM12 colon = test system: KM12 colon
KM20L2 colon = test system: KM20L2 colon
LOX IMVI melanoma = test system: LOX IMVI melanoma
LXFL 529 NSCLC = test system: LXFL 529 NSCLC
M14 melanoma = test system: M14 melanoma
M19-MEL melanoma = test system: M19-MEL melanoma
MALME-3M melanoma = test system: MALME-3M melanoma
MOLT-4 leukemia = test system: MOLT-4 leukemia
NCI-H226 lung = test system: NCI-H226 lung
NCI-H23 lung = test system: NCI-H23 lung
NCI-H460 lung = test system: NCI-H460 lung
NCI-H522 lung = test system: NCI-H522 lung
OVCAR-3 ovarian = test system: OVCAR-3 ovarian
OVCAR-4 ovarian = test system: OVCAR-4 ovarian
OVCAR-5 ovarian = test system: OVCAR-5 ovarian
OVCAR-8 ovarian = test system: OVCAR-8 ovarian
RPMI-8226 leukemia = test system: RPMI-8226 leukemia
RXF 393 renal = test system: RXF 393 renal
RXF-631 renal = test system: RXF-631 renal
SF-268 CNS = test system: SF-268 CNS
SF-295 CNS = test system: SF-295 CNS
SF-539 CNS = test system: SF-539 CNS
SK-MEL-2 melanoma = test system: SK-MEL-2 melanoma
SK-MEL-5 melanoma = test system: SK-MEL-5 melanoma
SK-OV-3 ovarian = test system: SK-OV-3 ovarian
SN12C renal = test system: SN12C renal
SNB-19 CNS = test system: SNB-19 CNS
SNB-75 CNS = test system: SNB-75 CNS
SW-620 colon = test system: SW-620 colon
TK-10 renal = test system: TK-10 renal
U251 CNS = test system: U251 CNS
UACC-257 melanoma = test system: UACC-257 melanoma
UACC-62 melanoma = test system: UACC-62 melanoma
UO-31 renal = test system: UO-31 renal
XF 498 CNS = test system: XF 498 CNS
DLD-1 colon = test system: DLD-1 colon
HOP-92 NSCLC = test system: HOP-92 NSCLC
SK-MEL-28 melanoma = test system: SK-MEL-28 melanoma
SNB-78 CNS = test system: SNB-78 CNS
SR leukemia = test system: SR leukemia

`CC(=O)O[C@H]1CCC2[C@@H]3CCC4Nc5[nH]ncc5C[C@]4(C)C3CC[C@@]21C` (some centres undefined) showed a TGI (786-0 renal) of over 100 µM, a TGI (A498 renal) of over 100 µM and a TGI (A549 NSCLC) of over 100 µM. For the same compound, the TGI (ACHN renal) was over 100 µM, the TGI (CAKI-1 renal) was over 100 µM and the TGI (CCRF-CEM leukemia) was 66.5 µM. It also gave a TGI (COLO 205 colon) of over 100 µM, a TGI (DMS 114 small cell lung) of over 100 µM and a TGI (DMS 273 small cell lung) of over 100 µM. It also gave a TGI (EKVX NSCLC) of over 100 µM, a TGI (HCC-2998 colon) of 79.7 µM and a TGI (HCT-116 colon) of over 100 µM. It also gave a TGI (HCT-15 colon) of over 100 µM, a TGI (HL-60(TB) leukemia) of 42.5 µM and a TGI (HOP-18 NSCLC) of over 100 µM. For the same compound, the TGI (HOP-62 NSCLC) was over 100 µM, the TGI (HT29 colon) was over 100 µM and the TGI (IGROV1 ovarian) was over 100 µM. It also gave a TGI (K-562 leukemia) of over 100 µM, a TGI (KM12 colon) of over 100 µM and a TGI (KM20L2 colon) of over 100 µM. It also gave a TGI (LOX IMVI melanoma) of over 100 µM, a TGI (LXFL 529 NSCLC) of over 100 µM and a TGI (M14 melanoma) of over 100 µM. It also gave a TGI (M19-MEL melanoma) of over 100 µM, a TGI (MALME-3M melanoma) of over 100 µM and a TGI (MOLT-4 leukemia) of 58.6 µM. For the same compound, the TGI (NCI-H226 lung) was over 100 µM, the TGI (NCI-H23 lung) was over 100 µM and the TGI (NCI-H460 lung) was over 100 µM. For the same compound, the TGI (NCI-H522 lung) was 83.2 µM, the TGI (OVCAR-3 ovarian) was over 100 µM and the TGI (OVCAR-4 ovarian) was over 100 µM. For the same compound, the TGI (OVCAR-5 ovarian) was over 100 µM, the TGI (OVCAR-8 ovarian) was over 100 µM and the TGI (RPMI-8226 leukemia) was over 100 µM. The TGI (RXF 393 renal) was over 100 µM, the TGI (RXF-631 renal) was over 100 µM and the TGI (SF-268 CNS) was over 100 µM. It also gave a TGI (SF-295 CNS) of over 100 µM, a TGI (SF-539 CNS) of over 100 µM and a TGI (SK-MEL-2 melanoma) of over 100 µM. The TGI (SK-MEL-5 melanoma) was 74.9 µM, the TGI (SK-OV-3 ovarian) was over 100 µM and the TGI (SN12C renal) was over 100 µM. It also gave a TGI (SNB-19 CNS) of over 100 µM, a TGI (SNB-75 CNS) of over 100 µM and a TGI (SW-620 colon) of over 100 µM. It also gave a TGI (TK-10 renal) of over 100 µM, a TGI (U251 CNS) of over 100 µM and a TGI (UACC-257 melanoma) of 72.4 µM. For the same compound, the TGI (UACC-62 melanoma) was 60.3 µM, the TGI (UO-31 renal) was over 100 µM and the TGI (XF 498 CNS) was 87 µM.

`COC(=O)[C@H]1C=C[C@@H](C)n2c(=O)c3cc4ccccc4cc3c(=O)n21` gave a TGI (786-0 renal) of over 100 µM, a TGI (A498 renal) of over 100 µM and a TGI (A549 NSCLC) of over 100 µM. It also gave a TGI (ACHN renal) of over 100 µM, a TGI (CAKI-1 renal) of over 100 µM and a TGI (CCRF-CEM leukemia) of over 100 µM. It also gave a TGI (COLO 205 colon) of over 100 µM, a TGI (DLD-1 colon) of over 100 µM and a TGI (DMS 114 small cell lung) of over 100 µM. For the same compound, the TGI (DMS 273 small cell lung) was over 100 µM, the TGI (EKVX NSCLC) was over 100 µM and the TGI (HCC-2998 colon) was over 100 µM. The TGI (HCT-116 colon) was over 100 µM, the TGI (HCT-15 colon) was over 100 µM and the TGI (HL-60(TB) leukemia) was over 100 µM. It also gave a TGI (HOP-62 NSCLC) of over 100 µM, a TGI (HOP-92 NSCLC) of over 100 µM and a TGI (IGROV1 ovarian) of over 100 µM. For the same compound, the TGI (K-562 leukemia) was over 100 µM, the TGI (KM12 colon) was over 100 µM and the TGI (KM20L2 colon) was over 100 µM. The TGI (LOX IMVI melanoma) was over 100 µM, the TGI (LXFL 529 NSCLC) was over 100 µM and the TGI (M14 melanoma) was over 100 µM. The TGI (M19-MEL melanoma) was over 100 µM, the TGI (MALME-3M melanoma) was over 100 µM and the TGI (MOLT-4 leukemia) was over 100 µM. It also gave a TGI (NCI-H226 lung) of over 100 µM, a TGI (NCI-H23 lung) of over 100 µM and a TGI (NCI-H460 lung) of over 100 µM. For the same compound, the TGI (NCI-H522 lung) was over 100 µM, the TGI (OVCAR-3 ovarian) was over 100 µM and the TGI (OVCAR-5 ovarian) was over 100 µM. The TGI (OVCAR-8 ovarian) was over 100 µM, the TGI (RPMI-8226 leukemia) was over 100 µM and the TGI (RXF 393 renal) was over 100 µM. The TGI (RXF-631 renal) was over 100 µM, the TGI (SF-268 CNS) was over 100 µM and the TGI (SF-295 CNS) was over 100 µM. It also gave a TGI (SF-539 CNS) of over 100 µM, a TGI (SK-MEL-2 melanoma) of over 100 µM and a TGI (SK-MEL-28 melanoma) of over 100 µM. It also gave a TGI (SK-MEL-5 melanoma) of over 100 µM, a TGI (SK-OV-3 ovarian) of over 100 µM and a TGI (SN12C renal) of over 100 µM. For the same compound, the TGI (SNB-19 CNS) was over 100 µM, the TGI (SNB-75 CNS) was over 100 µM and the TGI (SNB-78 CNS) was over 100 µM. It also gave a TGI (SR leukemia) of over 100 µM, a TGI (SW-620 colon) of over 100 µM and a TGI (TK-10 renal) of over 100 µM. The TGI (U251 CNS) was over 100 µM, the TGI (UACC-257 melanoma) was over 100 µM and the TGI (UO-31 renal) was over 100 µM. It also gave a TGI (XF 498 CNS) of over 100 µM.
